The molecules below were run against T1, Cathepsin K (Homo sapiens, UniProt P43235) (assay: Compound was tested for its inhibitory activity against human osteoclast cathepsin K).
T1 sequence (P43235 whole entry): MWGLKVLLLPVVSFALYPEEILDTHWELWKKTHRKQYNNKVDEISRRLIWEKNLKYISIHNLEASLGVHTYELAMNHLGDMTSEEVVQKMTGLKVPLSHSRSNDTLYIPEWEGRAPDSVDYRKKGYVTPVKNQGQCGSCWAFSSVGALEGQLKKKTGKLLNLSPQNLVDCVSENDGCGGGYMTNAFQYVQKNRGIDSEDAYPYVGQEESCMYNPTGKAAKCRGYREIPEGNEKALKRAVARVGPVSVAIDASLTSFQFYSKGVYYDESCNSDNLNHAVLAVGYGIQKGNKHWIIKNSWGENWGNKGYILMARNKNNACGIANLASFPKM
With `CC(C)C[C@H](NC(=O)OCc1ccccc1)c1nc(C(=O)NN2CC[C@@](CC(C)C)(NC(=O)OCc3ccccc3)C2=O)cs1` the Ki was 33 nM. `CC(C)C[C@H](NC(=O)OCc1ccccc1)c1nc(C(=O)NN2CC[C@@H](NC(=O)OCc3ccccc3)C2=O)cs1` showed a Ki of 330 nM. Work on `CC(C)C[C@H](NC(=O)OCc1ccccc1)C(=O)NNC(=O)c1csc([C@H](CC(C)C)NC(=O)OCc2ccccc2)n1` yielded a Ki of 10 nM.

From ChEMBL document CHEMBL1131781, “Design and synthesis of diaminopyrrolidinone inhibitors of human osteoclast cathepsin K” (Bioorg Med Chem Lett, 1999)
